Assays:
[1] = Uptake of Vitamin B12 into cerebrospinal fluid after intranasal and intramuscular administration; assay type: in vivo, human; conditions: intranasal administration compared with intramuscular injections
Source text: We conducted a non-blinded, single dose, parallel group study to compare the uptake of Vitamin B12 into the cerebrospinal fluid (CSF) after intranasal and intramuscular administration in healthy male and non-pregnant female volunteers. This study compared CSF levels to plasma levels produced by both formulations.
Thirty-six healthy male and non-pregnant female subjects, age 18 and over, were enrolled in the study. Eighteen subjects received a single intranasal dose of 500 mcg delivered as a 0.1 mL spray and eighteen subjects received a single intramuscular dose of 100 mcg delivered intramuscularly. Each subject visited the clinical site three times in a one-month period. These visits consisted of a screening visit, one dosing visit and a final visit.
After each dosing, each subject underwent lumbar puncture only once, with the retrieval of a total 4.0 mL of CSF (4 tubes, 1.0 mL per tube).
In addition to the above, on the day of dosing 7 mL blood samples were drawn before dosing and post dosing at 5, 10, 15 and 20 minutes, and at 0.5, 1, 1½, 2, 3, 4, 6, and 8 hours post-dose (prior to discharge).
The cerebrospinal fluid was evaluated for total Vitamin B12 content. […]
The levels of vitamin B12 were determined in both the CSF and blood serum using Vitamin B12 concentrations in the CSF will be analyzed for Qualitative determination of Vitamin B12 using a validated TOSOH Nex. […]

[2] = prior art (Merkus); not soluble at concentrations greater than; cited from earlier work

ratio of vitamin B12 (CSF) to serum, intranasal versus intramuscular [1]: higher
Substance: 5,6-dimethyl-benzimidazolyl cyanocobamide [vitamin B12]
solubility in an aqueous solution [2]: ≤ 1%

Reference: patent US9415007B2, “Cyanocobalamin low viscosity aqueous formulations for intranasal delivery” (PAR PHARMACEUTICAL INC., priority 2003, dated 2016)
